Measured values reported in patent US20160039897A1, “COMPOUNDS AND METHODS FOR TREATING OBESITY AND CONTROLLING WEIGHT” (THE UNIVERSITY OF NORTH CAROLINA AT CHAPEL HILL, priority 2013, published 2016).

How the values were obtained:
Type in all cases: in vivo, mouse
IGFBP-2−/− mice [1] = assay: Triglyceride content of right inguinal fat pad (colorimetric); details: after 12 weeks; vs control peptide
Method: Body fat and lean muscle mass was measured at weeks 0 and 12 of treatment by magnetic resonance imaging analysis (EchoMRI-100, Echo Medical Systems, Houston, Tex.), a technique that measures fat mass and lean mass in unanesthetized animals (Kelly S A, et. al., 2010). After completion of 12 weeks of treatment, the mice were sacrificed. Blood was collected by cardiac puncture and allowed to sit for 4 hours before centrifuging at 3500 rpm×15 min. The serum was aspirated and stored at −20° C. until analysis. Abdominal inguinal and visceral fat pads were carefully dissected from each animal according to defined anatomical landmarks. […] The right inguinal fat pad was dissected separately and the triglyceride content of this tissue was determined by a colorimetric analysis (Pointe Scientific, Canton, Mich.), as previously described (Dann H, Kimura S 1992). Serum adiponectin and leptin were measured by ELISA following manufacturer's instructions (Millipore, Billerica, Mass.).
Body composition and serum adipokine measurement. Body fat and lean mass were measured at weeks 0 and 12 of treatment by magnetic resonance imaging analysis (EchoMRI-100, Echo Medical Systems, Houston, Tex.), using unanesthetized animals. […]

IGFBP-2−/− mice [2] = assay: Adipocyte area measurement in peri-gonadal adipose tissue; details: after 12 weeks
Method: Adipocyte area measurement. Samples of peri-gonadal adipose tissue were fixed in 10% formalin and embedded in paraffin. Multiple sections were obtained from each sample and stained with hematoxylin and eosin. Digital images of each section were acquired using an Olympus BX61 microscope and cell areas were traced manually for at least 200 cells per section by an investigator blinded to the sample identity, using Image J software (1ASS). Four sections from each adipose depot were analyzed to derive the mean cell area per mouse 6 mice per group).

IGFBP-2−/− mice [3] = assay: Inguinal and visceral fat pad, liver and heart weights at sacrifice; details: after 12 weeks; for Inguinal fat / Visceral fat: pegylated peptide 50 μg IP 3 times/week, mean±SE
Method: (§1) Body fat and lean muscle mass was measured at weeks 0 and 12 of treatment by magnetic resonance imaging analysis (EchoMRI-100, Echo Medical Systems, Houston, Tex.), a technique that measures fat mass and lean mass in unanesthetized animals (Kelly S A, et. al., 2010). After completion of 12 weeks of treatment, the mice were sacrificed. Blood was collected by cardiac puncture and allowed to sit for 4 hours before centrifuging at 3500 rpm×15 min. The serum was aspirated and stored at −20° C. until analysis. Abdominal inguinal and visceral fat pads were carefully dissected from each animal according to defined anatomical landmarks. All subcutaneous fat between the lower part of the rib cage and the upper thigh was considered abdominal subcutaneous inguinal fat, whereas all fat found along the mesentery starting at the lesser curvature of the stomach and ending at the sigmoid colon was considered visceral fat. Fat depots were blotted dry prior to weighing. The right inguinal fat pad was dissected separately and the triglyceride content of this tissue was determined by a colorimetric analysis (Pointe Scientific, Canton, Mich.), as previously described (Dann H, Kimura S 1992). Serum adiponectin and leptin were measured by ELISA following manufacturer's instructions (Millipore, Billerica, Mass.).
(§2) Body composition and serum adipokine measurement. Body fat and lean mass were measured at weeks 0 and 12 of treatment by magnetic resonance imaging analysis (EchoMRI-100, Echo Medical Systems, Houston, Tex.), using unanesthetized animals. After 12 weeks of treatment, the mice were sacrificed and blood was collected by cardiac puncture and centrifuged at 3500 rpm×15 min. The serum was stored at −20° C. Abdominal inguinal and visceral fat pads were dissected from each animal according to defined anatomical landmarks. Subcutaneous fat between the rib cage and the upper thigh was termed subcutaneous inguinal fat, whereas all fat from the lesser curvature of the stomach to the sigmoid colon was termed visceral fat. Fat depots were blotted dry prior to weighing. The right inguinal fat pad was dissected separately and the triglyceride content of this tissue was determined by a calorimetric analysis (Pointe Scientific, Canton, Mich. Serum adiponectin and leptin were measured by ELISA following manufacturer's instructions (Millipore, Billerica, Mass.).

IGFBP-2−/− mice [4] = assay: Body composition (fat and lean mass) by EchoMRI at weeks 0 and 12
Method: as §1, §2

IGFBP-2−/− mice [5] = assay: Body weight gain and food intake, 12 weeks of peptide treatment; details: pegylated peptide 50 μg IP 3 times/week; for body weight gain (in words): HBD peptides after 8 weeks vs control peptide, control peptide over 12 weeks vs wild type
Method: Generation of the B6.129-Igfbp2^tmlJep, referred to as Igfbp2^−/− mice, has been described previously (DeMambro et al., 2008; Danno et al., 1992). The mice were backcrossed onto C57BL/6J background for at least 10 generations. Mating pairs were provided from Maine Medical Center Research Institute (Scarborough, Me.). Igfbp2^+/+ mice were C57BL/6J controls. All in vivo and ex vivo experimental studies were performed using male mice. The animal study protocol was reviewed and approved by the Institutional Animal Care and Use Committee of University of North Carolina at Chapel Hill. Mice were assigned to one of four treatment groups. 1) Peg HBD1 peptide: Igfbp2^−/− mice were administered 50 μg of the pegylated HBD1 peptide in 0.1 mL PBS (n=9); 2) Peg HBD2 peptide: Igfbp2^−/− mice were administered 50 μg of the pegylated HBD2 peptide in 0.1 mL PBS (n=10); 3) control peptide: Igfbp2^−/− mice were given 50 μg of the HBD1 control peptide in 0.1 mL PBS (n=18); 4) WT: Igfbp2^+/+ mice were given 0.1 mL of PBS (n=9). All injections were administered IP 3 times weekly from 10-22 weeks of age. All mice were provided with free access to 2018 Teklad global rodent diet (Harlan, Dublin, Va.), containing 18.6% protein, 6.2% fat and 3.5% crude fiber. Food consumption and the weights of the mice were determined weekly.
To investigate the effect of IGFBP-2 HBDs on weight gain and fat mass in vivo, the peptides containing HBD sequences were administered to IGFBP-2−/− mice. […] To extend the half life of the peptides and increase their resistance to proteolysis in vivo, all three peptides were pegylated. It has been shown that 50 μg of HBD1 peptide administered via intraperitoneal (IP) injection 5 times per week for 3 weeks was effective in promoting bone growth in IGFBP-2^−/− male mice (17). […] In the second phase the effects of the HBD2 and control peptides were determined. […] To exclude the possibility that differences in weight gain were caused by different food intake, food consumption was measured weekly.
Mice. […] Food consumption and the weights of the mice were determined weekly. […]

[6] = weeks 0 to 12, pegylated peptide 50 μg IP 3 times/week
[7] = weeks 0 to 12, pegylated peptide 50 μg IP 3 times/week, mean±SE

Sequence | reduction of triglyceride content in the inguinal fat pad (IGFBP-2−/− mice [1]) | adipocyte size (IGFBP-2−/− mice [2]) | reduction of inguinal fat pad (percentage of body weight) compared to control peptide (IGFBP-2−/− mice [3]) | reduction of visceral fat (percentage of body weight) compared to control peptide (IGFBP-2−/− mice [3]) | Inguinal fat (IGFBP-2−/− mice [3]) | Visceral fat (IGFBP-2−/− mice [3]) | reduction in body fat mass gain (fat as percentage of body weight) compared to control peptide (IGFBP-2−/− mice [4]; 12 weeks, pegylated peptide 50 μg IP 3 times/week) | lean mass change expressed as percentage of body weight (relative reduction) (IGFBP-2−/− mice [4]; [6]) | Fat mass increase (IGFBP-2−/− mice [4]; [7]) | Lean mass increase (IGFBP-2−/− mice [4]; [7]) | body weight gain (in words) (IGFBP-2−/− mice [5]) | weight gain compared to mice that received HBD1 peptide (IGFBP-2−/− mice [5]; after 10 weeks) | inhibition of fat mass acquisition (IGFBP-2−/− mice [4]; 12 weeks)
KHGLYNLKQCKMSLNGQR [HBD2 peptide] | 37±9% | 11967±716 pixels/cell | 32±7% | 44±7% | 0.23 ± 0.02 g | 0.25 ± 0.02 g | 48±9% | 2.1±0.8% | 0.58 ± 0.12 g | 3.10 ± 0.57 g | gained significantly less weight | significantly less | 
KHLSLEEPKKLRP [HBD1 peptide] | 22±2% | 12406±748 pixels/cell | had no effect | 24±5% | had no effect | 0.34 ± 0.01 g |  | 4.1±1.1% |  |  | gained significantly less weight |  | 31%
